# Experimental data taken from PubChem BioAssay (NCI).
#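 These data come from cells grown in 96-well plates and exposed to compound for 48 hours at five concentrations. The concentration for full growth arrest is given as TGI.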
# What was measured:
# Assay in all cases: NCI anticancer screen, dose series, 48 h
# NCI-H460 lung = tested on: NCI-H460 lung
# A549 NSCLC = tested on: A549 NSCLC
# BT-549 breast = tested on: BT-549 breast
# HCC-2998 colon = tested on: HCC-2998 colon
# MDA-MB-231 breast = tested on: MDA-MB-231 breast
# HCT-15 colon = tested on: HCT-15 colon
# RPMI-8226 leukemia = tested on: RPMI-8226 leukemia
# NCI/ADR-RES ovarian = tested on: NCI/ADR-RES ovarian
# ACHN renal = tested on: ACHN renal
# EKVX NSCLC = tested on: EKVX NSCLC
# K-562 leukemia = tested on: K-562 leukemia
# UACC-62 melanoma = tested on: UACC-62 melanoma
# SF-295 CNS = tested on: SF-295 CNS
# MCF7 breast = tested on: MCF7 breast
# MOLT-4 leukemia = tested on: MOLT-4 leukemia
# NCI-H522 lung = tested on: NCI-H522 lung
# SN12C renal = tested on: SN12C renal
# HL-60(TB) leukemia = tested on: HL-60(TB) leukemia
# OVCAR-3 ovarian = tested on: OVCAR-3 ovarian
# SNB-75 CNS = tested on: SNB-75 CNS
# U251 CNS = tested on: U251 CNS
# SK-OV-3 ovarian = tested on: SK-OV-3 ovarian
# NCI-H23 lung = tested on: NCI-H23 lung
# MDA-N = tested on: MDA-N
# HS 578T breast = tested on: HS 578T breast
# UACC-257 melanoma = tested on: UACC-257 melanoma
# SR leukemia = tested on: SR leukemia
# KM12 colon = tested on: KM12 colon
# OVCAR-5 ovarian = tested on: OVCAR-5 ovarian
# SK-MEL-5 melanoma = tested on: SK-MEL-5 melanoma
# SNB-19 CNS = tested on: SNB-19 CNS
# M14 melanoma = tested on: M14 melanoma
# SW-620 colon = tested on: SW-620 colon
# RXF 393 renal = tested on: RXF 393 renal
# SF-539 CNS = tested on: SF-539 CNS
# SK-MEL-28 melanoma = tested on: SK-MEL-28 melanoma
# PC-3 prostate = tested on: PC-3 prostate
# T-47D breast = tested on: T-47D breast
# HT29 colon = tested on: HT29 colon
# NCI-H226 lung = tested on: NCI-H226 lung
# SF-268 CNS = tested on: SF-268 CNS
# OVCAR-8 ovarian = tested on: OVCAR-8 ovarian
# OVCAR-4 ovarian = tested on: OVCAR-4 ovarian
# CCRF-CEM leukemia = tested on: CCRF-CEM leukemia
# MDA-MB-435 = tested on: MDA-MB-435
# HOP-62 NSCLC = tested on: HOP-62 NSCLC
# COLO 205 colon = tested on: COLO 205 colon
# 786-0 renal = tested on: 786-0 renal
# MALME-3M melanoma = tested on: MALME-3M melanoma
# IGROV1 ovarian = tested on: IGROV1 ovarian
# HOP-92 NSCLC = tested on: HOP-92 NSCLC
# HCT-116 colon = tested on: HCT-116 colon
# TK-10 renal = tested on: TK-10 renal
# DU-145 prostate = tested on: DU-145 prostate
# A498 renal = tested on: A498 renal
# SK-MEL-2 melanoma = tested on: SK-MEL-2 melanoma
# LOX IMVI melanoma = tested on: LOX IMVI melanoma
# UO-31 renal = tested on: UO-31 renal
# CAKI-1 renal = tested on: CAKI-1 renal
smiles,measurement,setting,value
CCNC1=C(NC(=O)c2ccc(OC)cc2)C(=O)c2ccccc2C1=O,TGI,NCI-H460 lung,> 100 µM
same,TGI,A549 NSCLC,> 100 µM
same,TGI,BT-549 breast,> 100 µM
same,TGI,HCC-2998 colon,> 100 µM
same,TGI,MDA-MB-231 breast,> 100 µM
same,TGI,HCT-15 colon,> 100 µM
same,TGI,RPMI-8226 leukemia,> 100 µM
same,TGI,NCI/ADR-RES ovarian,99.5 µM
same,TGI,ACHN renal,> 100 µM
same,TGI,EKVX NSCLC,> 100 µM
same,TGI,K-562 leukemia,> 100 µM
same,TGI,UACC-62 melanoma,> 100 µM
same,TGI,SF-295 CNS,> 100 µM
same,TGI,MCF7 breast,> 100 µM
same,TGI,MOLT-4 leukemia,> 100 µM
same,TGI,NCI-H522 lung,> 100 µM
same,TGI,SN12C renal,> 100 µM
same,TGI,HL-60(TB) leukemia,> 100 µM
same,TGI,OVCAR-3 ovarian,87.7 µM
same,TGI,SNB-75 CNS,> 100 µM
same,TGI,U251 CNS,> 100 µM
same,TGI,SK-OV-3 ovarian,> 100 µM
same,TGI,NCI-H23 lung,> 100 µM
same,TGI,MDA-N,> 100 µM
same,TGI,HS 578T breast,> 100 µM
same,TGI,UACC-257 melanoma,48 µM
same,TGI,SR leukemia,> 100 µM
same,TGI,KM12 colon,> 100 µM
same,TGI,OVCAR-5 ovarian,> 100 µM
same,TGI,SK-MEL-5 melanoma,> 100 µM
same,TGI,SNB-19 CNS,> 100 µM
same,TGI,M14 melanoma,55.9 µM
same,TGI,SW-620 colon,> 100 µM
same,TGI,RXF 393 renal,88.2 µM
same,TGI,SF-539 CNS,> 100 µM
same,TGI,SK-MEL-28 melanoma,> 100 µM
same,TGI,PC-3 prostate,> 100 µM
same,TGI,T-47D breast,> 100 µM
same,TGI,HT29 colon,76.9 µM
same,TGI,NCI-H226 lung,> 100 µM
same,TGI,SF-268 CNS,> 100 µM
same,TGI,OVCAR-8 ovarian,> 100 µM
same,TGI,OVCAR-4 ovarian,> 100 µM
same,TGI,CCRF-CEM leukemia,> 100 µM
same,TGI,MDA-MB-435,31.1 µM
same,TGI,HOP-62 NSCLC,> 100 µM
same,TGI,COLO 205 colon,> 100 µM
same,TGI,786-0 renal,> 100 µM
same,TGI,MALME-3M melanoma,50.9 µM
same,TGI,IGROV1 ovarian,> 100 µM
same,TGI,HOP-92 NSCLC,> 100 µM
same,TGI,HCT-116 colon,> 100 µM
same,TGI,TK-10 renal,> 100 µM
same,TGI,DU-145 prostate,> 100 µM
CN(C)CCN=C1Nc2ccccc2C(=O)N2CSCC12 (centres undefined),TGI,NCI-H460 lung,> 100 µM
same,TGI,A498 renal,> 100 µM
same,TGI,A549 NSCLC,> 100 µM
same,TGI,SK-MEL-2 melanoma,> 100 µM
same,TGI,BT-549 breast,> 100 µM
same,TGI,HCC-2998 colon,> 100 µM
same,TGI,MDA-MB-231 breast,> 100 µM
same,TGI,HCT-15 colon,> 100 µM
same,TGI,RPMI-8226 leukemia,> 100 µM
same,TGI,NCI/ADR-RES ovarian,> 100 µM
same,TGI,LOX IMVI melanoma,> 100 µM
same,TGI,ACHN renal,> 100 µM
same,TGI,EKVX NSCLC,> 100 µM
same,TGI,K-562 leukemia,> 100 µM
same,TGI,UACC-62 melanoma,> 100 µM
same,TGI,SF-295 CNS,> 100 µM
same,TGI,MCF7 breast,> 100 µM
same,TGI,MOLT-4 leukemia,> 100 µM
same,TGI,NCI-H522 lung,> 100 µM
same,TGI,SN12C renal,> 100 µM
same,TGI,OVCAR-3 ovarian,> 100 µM
same,TGI,SNB-75 CNS,> 100 µM
same,TGI,U251 CNS,> 100 µM
same,TGI,SK-OV-3 ovarian,> 100 µM
same,TGI,MDA-N,> 100 µM
same,TGI,HS 578T breast,> 100 µM
same,TGI,UACC-257 melanoma,> 100 µM
same,TGI,SR leukemia,> 100 µM
same,TGI,KM12 colon,> 100 µM
same,TGI,OVCAR-5 ovarian,> 100 µM
same,TGI,SK-MEL-5 melanoma,> 100 µM
same,TGI,SNB-19 CNS,> 100 µM
same,TGI,M14 melanoma,> 100 µM
same,TGI,SW-620 colon,> 100 µM
same,TGI,RXF 393 renal,> 100 µM
same,TGI,SK-MEL-28 melanoma,> 100 µM
same,TGI,PC-3 prostate,> 100 µM
same,TGI,T-47D breast,> 100 µM
same,TGI,HT29 colon,> 100 µM
same,TGI,NCI-H226 lung,> 100 µM
same,TGI,UO-31 renal,> 100 µM
same,TGI,SF-268 CNS,> 100 µM
same,TGI,OVCAR-8 ovarian,> 100 µM
same,TGI,CAKI-1 renal,> 100 µM
same,TGI,OVCAR-4 ovarian,> 100 µM
same,TGI,CCRF-CEM leukemia,> 100 µM
same,TGI,MDA-MB-435,> 100 µM
same,TGI,HOP-62 NSCLC,> 100 µM
same,TGI,COLO 205 colon,> 100 µM
same,TGI,786-0 renal,> 100 µM
same,TGI,MALME-3M melanoma,> 100 µM
same,TGI,IGROV1 ovarian,> 100 µM
same,TGI,HCT-116 colon,> 100 µM
same,TGI,TK-10 renal,> 100 µM
same,TGI,DU-145 prostate,> 100 µM
